{"source": "patent US6977271B1", "about": "“Method for inhibition of angiogenesis and vasculogenesis” (Health Research, Inc., priority 2001, dated 2005)", "key": {"[1]": {"tested_on": "rat mammary stromal cells (MSC)", "experiment": "In vitro angiogenesis assay: microcapillary network formation on EHS-RBM", "assay_type": "cell-based", "details": "7 days in culture; for microcapillary network diameter: 75, 100 and 125 μM", "description": "An in vitro angiogenesis assay, the formation of microcapillary networks by rat mammary stromal vascular precursor cells on the angiogenic substrate, EHS-RBM, was used to compare the isomer- and concentration-dependent effects of mixed CLA isomers and c9,t11- and t10,c12-CLA. Rat mammary stromal cells (MSC) have the ability to act as true vascular precursors and were isolated from mammary glands as described (Zangani et al., 1999).\nCLA-containing media was prepared as follows. Briefly, 18.1 μl of 5N NaOH was added to 28.2 μl of CLA (0.9 g/ml, FW 280) in a small Erlenmeyer flask, followed by vortexing, to make the sodium salt. Warm fetal calf serum (10 ml) was added, sonicated 3–4× with brief pulses (5 sec each), and then gassed with nitrogen and the flask sealed with parafilm. The mixture was incubated in a sonicating water bath for 30 min, followed by 5 min incubation in a 50° C. water bath. FBS (11.9 ml) was added to the flask, to bring the CLA to a final 33× concentration (4.125 mM).\nEarly passage MSC (prior to passage 4) were cultured in a 24 well plate at 2×10^4 cells/well, plated onto 0.4 ml EHS-RBM in the presence of phenol red free F12/DME with 3% FCS, supplemented with 0, 25, 50, 75, 100 or 125 μM CLA. After 7 days in culture, when the cells had formed multiple colonies of three-dimensional networks of tubules (Zangani et al., 1999), capillary networks were photographed, and the extent of network formation was assessed by measuring four planar diameters, at 45° intervals, of the branching colonies. The five largest colonies in each of three wells per group were assessed, for a total of fifteen colonies for each concentration of CLA per experiment. This experiment was replicated twice."}, "[2]": {"tested_on": "VEGF-A", "experiment": "Serum VEGF analysis by ELISA after EHS-RBM challenge", "assay_type": "in vivo, CD2/F1 mice", "details": "for reduction of average serum VEGF levels: 7 days after angiogenic challenge, relative to control diet", "description": "(§1) To determine the effects of dietary CLA on angiogenesis, the in vivo angiogenesis model of Kibbey et al., 1992 was utilized. Briefly, CD2/F1 female mice were placed on diets with or without CLA at 8 or 12 weeks of age, with 10–12 mice per group per experiment. After 6 weeks of diet, mice were given bilateral injections of EHS-RBM containing 1.25 μg/ml bFGF and 60 μg/ml heparan sulfate using a 25-gauge needle, into the region of mammary gland four. Mice were sacrificed 7 days after injection. Blood was collected from the trunk for preparation of plasma for analysis of VEGF levels. Pellets and adjacent normal mammary gland tissue were removed and formalin fixed for paraffin embedding. This experiment was repeated four times.\nSerum VEGF (VEGF-A) levels were assessed by ELISA using a commercial kit (Quantikine M mouse VEGF ELISA, R&D Systems), as per the manufacturer's instructions. VEGF levels were assessed in sera from mice which had been on diet for a total of 7 weeks, and had received EHS-RBM angiogenic challenge 1 week prior to sacrifice."}, "[3]": {"tested_on": "mouse epidermal carcinogenesis", "details": "Ha et al, 1987; Belury et al, 1996; cited from earlier work"}, "[4]": {"tested_on": "VEGF", "experiment": "Western blot of VEGF in whole mammary gland lysates", "assay_type": "in vivo, CD2/F1 mice", "details": "dietary CLA 7 weeks, no angiogenic challenge, dose-dependent", "description": "(§2) Alternately, for analysis of whole mammary gland levels of VEGF and Flk-1, 10 mice per group were placed on diet at 8 weeks of age, and mice were sacrificed 7 weeks after diet initiation. Mammary glands were snap-frozen in liquid nitrogen to be utilized for preparation of whole gland lysates.\nWhole mammary glands (gland four) were dissected after sacrifice from mice fed control- or CLA-supplemented diets, snap-frozen in liquid nitrogen and stored at −80° C. Lysates were prepared by pulverizing the frozen glands in a liquid nitrogen-cooled metal pulverizer to a fine powder. The powder was weighed in a pre-tared microfuge tube, and resuspended in ice-cold Triton X-100 lysis buffer (50 mM Tris, pH7.5 at room temperature, 250 mM NaCl, 5 mM EDTA, 0.1% (v/v) Triton X-100, supplemented with 0.1 mM PMSF, 20 ng/ml leupeptin and 100 ng/ml soybean trypsin inhibitor) using 2 ml per gram of tissue. The powder was then homogenized in an ice-cold microfuge tube, using 10–15 strokes of a fitted glass homogenizer. […] Lysates from 7 mice per dietary group were analyzed.\nLysates were loaded using equal protein per well, and proteins were separated on a 7.5% reducing SDS-gel according to the method of Laemmli well known in the art. […] Specific antibody-reactive bands were quantified by densitometry using a Model 300A Scanning Laser Densitometer and ImageQuant software (Molecular Dynamics)."}, "[5]": {"tested_on": "mouse forestomach neoplasia", "details": "Ha et al, 1990; cited from earlier work"}, "[6]": {"tested_on": "MDA-MB468 breast cancer cells and DU-145 prostatic tumor cells", "details": "MDA-MB468 and DU-145 cells in SCID mice; Visonneau et al, 1997; Cesano et al, 1998; cited from earlier work"}, "[7]": {"tested_on": "EHS-RBM pellet (angiogenic challenge)", "experiment": "In vivo EHS-RBM angiogenesis assay", "parameters": "species or system CD2/F1 mice", "description": "as §1\nMicrosope visual fields, visualized with a 20× objective were analyzed for cellular invasion, and with a 40× objective for the presence of functional blood vessels, for a final magnification of 200 or 400×, respectively. The ability of dietary CLA to affect cellular invasion into the EHS-RBM pellet was analyzed on H&E-stained paraffin sections by counting the number of nuclei per field, excluding all acellular regions that remained uninvaded. A total of 68 fields were assessed in 13 pellets from mice on control diets, 75 fields were assessed from 9 pellets from mice on 1% CLA diets, and 62 fields analyzed from 13 pellets, obtained from mice on 2% CLA diets. We analyzed all pellets retrieved from the animals; there was a decline in the number of visible pellets in CLA-fed animals.\nFunctional angiogenesis was quantified by determining the number of cell-lined structures with patent lumen and red blood cells. H&E stained paraffin sections were visualized by epifluorescent illumination; red blood cells are strongly fluorescent due to their intensely eosinophilic cytoplasm. This intensity is easily distinguished from the dimly fluorescent nucleated cells. The relative dimness of nucleated cells may be partly due to the presence of nuclear and/or cytoplasmic hematoxylin, which quenches fluorescence. A total of 162 fields were analyzed from 21 slides from control diet animals, 158 fields were analyzed from 21 slides from 1% CLA diet animals, and 174 fields were analyzed from 13 slides from 2% CLA diet animals."}, "[8]": {"tested_on": "rat mammary carcinogenesis", "details": "Ip et al, 1991, 1994, 1995; cited from earlier work"}, "[9]": {"tested_on": "Flk-1 (VEGF receptor 2)", "experiment": "Western blot of Flk-1 in whole mammary gland lysates", "assay_type": "in vivo, CD2/F1 mice", "description": "as §2\nWhole mammary glands (gland four) were dissected after sacrifice from mice fed control- or CLA-supplemented diets, snap-frozen in liquid nitrogen and stored at −80° C. Lysates were prepared by pulverizing the frozen glands in a liquid nitrogen-cooled metal pulverizer to a fine powder. The powder was weighed in a pre-tared microfuge tube, and resuspended in ice-cold Triton X-100 lysis buffer (50 mM Tris, pH7.5 at room temperature, 250 mM NaCl, 5 mM EDTA, 0.1% (v/v) Triton X-100, supplemented with 0.1 mM PMSF, 20 ng/ml leupeptin and 100 ng/ml soybean trypsin inhibitor) using 2 ml per gram of tissue. The powder was then homogenized in an ice-cold microfuge tube, using 10–15 strokes of a fitted glass homogenizer. Samples were incubated on ice for 30 minutes, and then centrifuged for 10 min at 4° C. at 8,000×g. The supernatants were then aliquoted and frozen at −20° C. An aliquot of the sample was used to determine protein concentration, using the Bio-Rad protein assay. Immediately before electrophoresis, samples were prepared for loading by adding 4× Laemmli SDS-sample buffer at a 1:3 ratio to the thawed sample. The sample was then boiled, sonicated, and centrifuged for 10 min at 4° C., 8,000×g in a microfuge, before loading supernatant. Lysates from 7 mice per dietary group were analyzed.\nLysates were loaded using equal protein per well, and proteins were separated on a 7.5% reducing SDS-gel according to the method of Laemmli well known in the art. Proteins were transferred to nitrocellulose using a Bio-Rad Transblot Apparatus (Hercules, Calif.). Blots were blocked with Blotto (TBS (10 mM Tris, pH 8.0, 150 mM NaCl), 0.5% Tween 20, 5% (w/v) non-fat dry milk). All antibody incubations and subsequent rinses were performed in Blotto, with vigorous rocking. Rabbit anti-VEGF-A was used at a final concentration of 2 μg/ml, and rabbit anti-Flk-1 was used at a final concentration of 1 μg/ml. To control for variability in loading, the same blots used for VEGF were stripped and probed for Flk-1. The blots were then stripped again and probed with mouse antisera to hsc70, at a 1:20,000 final concentration. Hsc70 was used as a control for cellular protein loading of western blots, as a constitutively expressed cytoplasmic housekeeping protein. […] Specific antibody-reactive bands were quantified by densitometry using a Model 300A Scanning Laser Densitometer and ImageQuant software (Molecular Dynamics)."}, "[10]": {"tested_on": "aberrant crypt foci in the rat colon", "details": "Liew et al, 1995; cited from earlier work"}}}
{"compound": "CCCCC/C=C\\C=C\\CCCCCCCCC(=O)O", "note": "[t10,c12-CLA]", "values": [{"measurement": "microcapillary network size", "setting": "[1]; 100 and 125 μM", "value": "significant decreased"}]}
{"compound": "Conjugated Linoleic Acid [CLA]", "values": [{"measurement": "reduction of average serum VEGF levels", "setting": "[2]; 1% CLA diet for 7 weeks", "value": "approximately 40%"}, {"measurement": "reduction of average serum VEGF levels", "setting": "[2]; 2% CLA diet for 7 weeks", "value": "approximately 40%"}, {"measurement": "systemic effect on serum VEGF with or without angiogenic challenge", "setting": "[2]; data not shown", "value": "only significant in mice stimulated by angiogenic challenge"}, {"measurement": "microcapillary network diameter", "setting": "[1]", "value": "significantly decreased"}, {"measurement": "total number of colonies and size/extent of their branching", "setting": "[1]; MSC on EHS-RBM", "value": "inhibited"}, {"measurement": "DMBA-induced mouse epidermal carcinogenesis", "setting": "[3]", "value": "inhibit"}, {"measurement": "mammary gland VEGF 28 kDa band, densitometry normalized to hsc70", "setting": "[4]", "value": "significantly decreased"}, {"measurement": "mammary gland VEGF 54 kDa band, densitometry normalized to hsc70", "setting": "[4]", "value": "significantly decreased"}, {"measurement": "BP-induced mouse forestomach neoplasia", "setting": "[5]", "value": "inhibit"}, {"measurement": "size and metastatic spread of human tumor cells", "setting": "[6]", "value": "reduce"}, {"measurement": "functional angiogenesis within the EHS pellet (structures containing red blood cells)", "setting": "[7]; 1% CLA diet vs control diet", "value": "significantly decreased"}, {"measurement": "functional angiogenesis within the EHS pellet (structures containing red blood cells)", "setting": "[7]; 2% CLA diet vs control diet", "value": "significantly decreased"}, {"measurement": "cellular invasion, number of nuclei per field in the invaded regions of the pellet", "setting": "[7]; CLA-fed mice (1% or 2% CLA diet) vs control diet, 7 days after EHS-RBM injection", "value": "significantly decreased"}, {"measurement": "average measured depth of cellular infiltration of the pellet", "setting": "[7]; CLA-fed vs control mice, data not shown", "value": "not different"}, {"measurement": "DMBA- and NMU-induced rat mammary carcinogenesis", "setting": "[8]", "value": "inhibit"}, {"measurement": "expression of Flk-1 protein on western blot", "setting": "[9]; animals fed 2% CLA", "value": "uniformly low expression"}, {"measurement": "mammary gland Flk-1 60 kDa band, scanning densitometry", "setting": "[9]; dietary CLA, dose-dependent", "value": "statistically significant decrease"}, {"measurement": "mammary gland Flk-1 200 kDa band, scanning densitometry", "setting": "[9]; dietary CLA, dose-dependent", "value": "statistically significant decrease"}, {"measurement": "expression of Flk-1 protein on western blot", "setting": "[9]; mice fed 1% CLA", "value": "variable expression"}, {"measurement": "incidence of aberrant crypt foci in the rat colon", "setting": "[10]", "value": "inhibit"}]}
{"compound": "CCCCCC/C=C/C=C\\CCCCCCCC(=O)O", "note": "[c9,t11-CLA, cis-9, trans-11 CLA]", "values": [{"measurement": "microcapillary network diameter", "setting": "[1]", "value": "significantly decreased"}]}
